{"source": "patent US10745452B2", "about": "“Combination of antimicrobial peptides and antibiotic drugs for treating diseases” (OMNIX MEDICAL LTD., priority 2016, dated 2020)", "type_in_all_cases": "cell-based", "key": {"[1]": {"tested_on": "Salmonella serotype Typhimurium (ATCC 700408)", "test": "microbe, parasite or virus in culture", "settings": "for bacterial growth (OD600), combination: simultaneously; for bacterial growth (OD600), combination / bacterial growth (OD600), stand-alone treatment: 17-20 h; for MIC: Salmonella"}, "[2]": {"tested_on": "Salmonella serotype Typhimurium (ATCC 700408)", "test": "microbe, parasite or virus in culture", "settings": "for bacterial growth (OD600), combination: simultaneously; for bacterial growth (OD600), combination / bacterial growth (OD600), stand-alone treatment: 17-20 h; for MIC: Salmonella", "experimental": "FIG. 1 presents: Salmonella serotype Typhimurium (ATCC 700408), a Multi-Drug Resistant (MDR) strain of bacteria were cultured in the presence of either OMN6 or Kanamycin KAN. […] The bacteria were incubated for 17-20 hours and the growth of the bacteria was continuously monitored via spectrophotometry at 600 nm (OD600). As bacterial growth progresses, OD600 values rise, and where the growth is inhibited OD600 values remain constant.\n(§1) The bacteria were incubated for 17-20 hours and the growth of the bacteria was continuously monitored via spectrophotometry at 600 nm (OD600). As bacterial growth progresses, OD600 values rise, and where the growth is inhibited OD600 values remain constant.\nFIG. 3A presents: Salmonella serotype Typhimurium (ATCC 700408), a Multi-Drug Resistant (MDR) strain of bacteria were cultured in the presence of OMN6 or AMP.", "remark": "listed apart in the source"}, "[3]": {"tested_on": "Pseudomonas aeruginosa (ATCC BAA-2110)", "test": "Growth of MDR bacteria monitored by OD600 under peptide, antibiotic or co-treatment", "settings": "FIG. 3B; for bacterial growth (OD600), combination: OMN6 32 μg/ml together with AMP 64 μg/ml, simultaneously; for bacterial growth (OD600), combination / bacterial growth (OD600), stand-alone treatment: 17-20 h", "experimental": "FIG. 3B presents: Pseudomonas aeruginosa (ATCC BAA-2110), a Multi-Drug Resistant (MDR) strain of bacteria were cultured in the presence of either OMN6 or AMP. The bacteria were introduced into solutions of OMN6 (32 μg/ml) and AMP (64 μg/ml) at concentrations that were previously shown to be non-effective when added alone. […] The bacteria were then cultured in the presence of a co-treatment with a combination of OMN6 and AMP, and administered simultaneously, in the same non-effective concentrations described above.\nas §1"}, "[4]": {"tested_on": "Pseudomonas aeruginosa (ATCC BAA-2110)", "test": "Growth of MDR bacteria monitored by OD600 under peptide, antibiotic or co-treatment", "settings": "AMP alone 128 μg/ml; 17-20 h; FIG. 3B"}, "[5]": {"settings": "OMN6 32 μg/ml together with AMP 128 μg/ml, FIG. 3A"}}, "note": "Entries after “also recorded” stand apart in the source; their conditions may differ. Where two headings read alike, the source gives them in different places. Ends that are not written are not given here. Peptide text beside a SMILES is read from it.", "data": [{"compound": "CC[C@H](C)[C@H](NC(=O)CNC(=O)[C@H](CCC(=O)O)NC(=O)[C@H](CO)NC(=O)[C@@H](NC(=O)[C@H](CCCNC(=N)N)NC(=O)[C@H](CCCCN)NC(=O)[C@H](CCCCN)NC(=O)[C@H](C)NC(=O)[C@H](CO)NC(=O)[C@H](CC(N)=O)NC(=O)[C@H](CCC(=O)O)NC(=O)[C@H](CC(C)C)NC(=O)[C@H](CCCCN)NC(=O)[C@H](CCCCN)NC(=O)[C@H](C)NC(=O)[C@@H](NC(=O)[C@H](CCCCN)NC(=O)[C@H](CO)NC(=O)[C@H](CC(C)C)NC(=O)[C@H](Cc1c[nH]c2ccccc12)NC(=O)[C@H](CO)NC(=O)[C@H](CS)NC(=O)[C@@H](N)CCSC)[C@@H](C)O)[C@@H](C)CC)C(=O)N[C@@H](C)C(=O)N[C@H](C(=O)N[C@@H](C)C(=O)N[C@H](C(=O)N[C@@H](CCC(N)=O)C(=O)NCC(=O)NCC(=O)N1CCC[C@H]1C(=O)N[C@@H](CCCNC(=N)N)C(=O)N[C@@H](CS)C(=O)O)[C@@H](C)CC)[C@@H](C)CC", "note": "[OMN11] (H-MCSWLSKTAKKLENSAKKRISEGIAIAIQGGPRC-OH; N-terminus and C-terminus assumed)", "values": [{"measurement": "bacterial growth (OD600), combination", "setting": "[1]; OMN11 304 μg/ml together with IPM 32 μg/ml, FIG. 2", "result": "complete and long-lasting antimicrobial effect; also recorded: powerful antimicrobial effect"}, {"measurement": "bacterial growth (OD600), stand-alone treatment", "setting": "[1]; OMN11 alone 304 μg/ml, FIG. 2", "result": "did not inhibit bacterial growth and did not lead to bacterial death; also recorded: did not inhibit bacterial growth effectively"}]}, {"compound": "C[C@@H](O)[C@H]1C(=O)N2C(C(=O)O)=C(SCCN=CN)C[C@H]12", "note": "[IPM, Imipenem, reference compound]", "values": [{"measurement": "MIC", "setting": "[1]; read-out: Minimal Inhibitory Concentration (MIC) of co-treatment, IPM part", "result": 32, "unit": "µg/mL"}]}, {"compound": "OMN6: modified H. cecropia Cecropin A peptide, MCKWKLFKKIEKVGQNIRDGIIKAGPAVAVVGQATQIAKC (ends and bridges not checked; cysteine pairing not given here)", "values": [{"measurement": "bacterial growth (OD600), combination", "setting": "[2]; [5]", "result": "complete and long-lasting antimicrobial effect; also recorded: powerful antimicrobial effect"}, {"measurement": "bacterial growth (OD600), combination", "setting": "[2]; OMN6 217 μg/ml together with KAN 3.75 μg/ml, FIG. 1", "result": "complete and long-lasting antimicrobial effect; also recorded: powerful antimicrobial effect"}, {"measurement": "bacterial growth (OD600), stand-alone treatment", "setting": "[2]; OMN6 alone 32 μg/ml, FIG. 3A", "result": "did not inhibit bacterial growth and did not lead to bacterial death; also recorded: did not inhibit bacterial growth effectively"}, {"measurement": "bacterial growth (OD600), stand-alone treatment", "setting": "[2]; OMN6 alone 32 μg/ml, FIG. 4", "result": "did not inhibit bacterial growth and did not lead to bacterial death; also recorded: did not inhibit bacterial growth effectively"}, {"measurement": "Minimal Inhibitory Concentration (MIC) of co-treatment, OMN6 part", "setting": "[2]; in co-treatment with AMP 128 μg/ml, FIG. 3A", "result": 32, "unit": "µg/mL"}, {"measurement": "Minimal Inhibitory Concentration (MIC) of co-treatment, OMN6 part", "setting": "[2]; in co-treatment with KAN 3.75 μg/ml, FIG. 1", "result": 217, "unit": "µg/mL"}, {"measurement": "bacterial growth (OD600), combination", "setting": "[3]", "result": "complete and long-lasting antimicrobial effect; also recorded: powerful antimicrobial effect"}, {"measurement": "bacterial growth (OD600), stand-alone treatment", "setting": "[3]; OMN6 alone 32 μg/ml", "result": "did not inhibit bacterial growth and did not lead to bacterial death; also recorded: did not inhibit bacterial growth effectively"}, {"measurement": "Minimal Inhibitory Concentration (MIC) of co-treatment, OMN6 part", "setting": "[3]; in co-treatment with AMP 64 μg/ml", "result": 32, "unit": "µg/mL"}, {"measurement": "bacterial growth (OD600), combination", "setting": "[1]; OMN6 32 μg/ml together with TET 16 μg/ml, FIG. 4", "result": "complete and long-lasting antimicrobial effect; also recorded: powerful antimicrobial effect"}, {"measurement": "bacterial growth (OD600), stand-alone treatment", "setting": "[1]; OMN6 alone 217 μg/ml, FIG. 1", "result": "did not inhibit bacterial growth and did not lead to bacterial death; also recorded: did not inhibit bacterial growth effectively"}]}, {"compound": "NC[C@H]1O[C@H](O[C@H]2[C@H](O)[C@@H](O[C@H]3O[C@H](CO)[C@@H](O)[C@H](N)[C@H]3O)[C@H](N)C[C@@H]2N)[C@H](O)[C@@H](O)[C@@H]1O", "note": "[KAN, Kanamycin, reference compound]", "values": [{"measurement": "MIC", "setting": "[2]; in co-treatment with OMN6 217 μg/ml, FIG. 1, read-out: Minimal Inhibitory Concentration (MIC) of co-treatment, KAN part", "result": 3.75, "unit": "µg/mL"}]}, {"compound": "CC1(C)S[C@@H]2[C@H](NC(=O)[C@H](N)c3ccccc3)C(=O)N2[C@H]1C(=O)O", "note": "[AMP, Ampicillin, reference compound]", "values": [{"measurement": "bacterial growth (OD600), stand-alone treatment", "setting": "[2]; AMP alone 128 μg/ml, FIG. 3A", "result": "did not inhibit bacterial growth and did not lead to bacterial death; also recorded: did not inhibit bacterial growth effectively"}, {"measurement": "bacterial growth (OD600), combination", "setting": "[2]; [5]", "result": "complete and long-lasting antimicrobial effect; also recorded: powerful antimicrobial effect"}, {"measurement": "MIC", "setting": "[2]; read-out: Minimal Inhibitory Concentration (MIC) of co-treatment, AMP part", "result": 128, "unit": "µg/mL"}, {"measurement": "bacterial growth (OD600), stand-alone treatment", "setting": "[3]; AMP alone 64 μg/ml", "result": "did not inhibit bacterial growth and did not lead to bacterial death"}, {"measurement": "bacterial growth (OD600), combination", "setting": "[3]", "result": "complete and long-lasting antimicrobial effect; also recorded: powerful antimicrobial effect"}, {"measurement": "MIC", "setting": "[3]; Pseudomonas aeruginosa, ATCCBAA2110, in co-treatment with OMN6 32 μg/ml, read-out: Minimal Inhibitory Concentration (MIC) of co-treatment, AMP part", "result": 64, "unit": "µg/mL"}, {"measurement": "bacterial growth (OD600), stand-alone treatment", "setting": "[4]", "result": "did not inhibit bacterial growth effectively"}]}, {"compound": "CN(C)[C@@H]1C(O)=C(C(N)=O)C(=O)[C@@]2(O)C(O)=C3C(=O)c4c(O)cccc4[C@@](C)(O)[C@H]3C[C@@H]12", "note": "[TET, Tetracycline, reference compound]", "values": [{"measurement": "MIC", "setting": "[1]; in co-treatment with OMN6 32 μg/ml, FIG. 4, read-out: Minimal Inhibitory Concentration (MIC) of co-treatment, TET part", "result": 162, "unit": "µg/mL"}]}]}
